Here are results for 29 molecules from US6426229B1, “Chelating agent and detergent comprising the same” (Mitsubishi Rayon Co., Ltd., priority 1995, dated 2002).

Molecules are shown by their SMILES.

The first data set in a line: Storage of aqueous solution or slurry for 60 days: HPLC analysis of components and appearance. Type of data set: physicochemical. The conditions noted are these: keeping temperature 40° C.
Turning to `O=C([O-])CC(NCCCNC(CC(=O)[O-])C(=O)[O-])C(=O)[O-].[Na+].[Na+].[Na+].[Na+]` (stereo not drawn) [Example 123, tetrasodium 1,3-propanediamine-N,N′-disuccinate], the “Appearance after kept for 60 days” value was “White slurry” and the “Content of the compound of the formula [I] in aqueous solution after kept for 60 days” value (shortened to “Content of the compound of the formula”) came out at 74.1 wt. %.
Taken in the same sequence, the figures for `O=C([O-])CN(CC(=O)[O-])c1ccccc1C(=O)[O-].[Fe+3]` [compound 42, iron salt of anthranilic acid-N,N-diacetic acid, reference compound] were “Blackish brown aqueous solution” and 40.6 wt. %.
For the molecule `O=C([O-])CC(NCCNC(CC(=O)[O-])C(=O)[O-])C(=O)[O-].[Na+].[Na+].[Na+].[Na+]` (stereo not drawn) [Example 122, tetrasodium ethylenediamine-N,N′-disuccinate], the “Appearance after kept for 60 days” value is recorded as “White slurry” and the “Content of the compound of the formula” value came to 74.1 wt. %.
Take `O=C([O-])CN(CC(=O)[O-])c1ccccc1C(=O)[O-].[Fe+3]` [Example 111, iron salt of anthranilic acid-N,N-diacetic acid]: the “Appearance after kept for 60 days” value is given as “Reddish brown aqueous solution” and the “Content of the compound of the formula” value is on record as 39.8 wt. %.
Taken in the same sequence, the figures for `O=C([O-])CN(CC(=O)[O-])c1ccccc1C(=O)[O-].[Fe+3]` [Example 110, iron salt of anthranilic acid-N,N-diacetic acid] were “Reddish brown aqueous solution” and 49.3 wt. %.

Still in this data set, the particulars now being: keeping temperature 60° C.
`O=C([O-])CN[C@@H](CC(=O)[O-])C(=O)[O-].[Na+].[Na+].[Na+]` [compound 35, trisodium salt of (S)-aspartic acid-N-monoacetic acid, reference compound]: the “Appearance after kept for 60 days” value is given as “Brown slurry” and the “Content of the compound of the formula” value stood at 47.3 wt. %.

Staying with this data set, now noted: keeping temperature 65° C.
Regarding `O=C([O-])CC(NCCCNC(CC(=O)[O-])C(=O)[O-])C(=O)[O-].[Na+].[Na+].[Na+].[Na+]` (stereo not drawn) [Example 119, tetrasodium 1,3-propanediamine-N,N′-disuccinate], the “Appearance after kept for 60 days” value is “Light yellow slurry” and the “Content of the compound of the formula” value was determined as 65.4 wt. %.
For `O=C([O-])CN(CCS(=O)(=O)[O-])CC(=O)[O-].[Na+].[Na+].[Na+]` [Example 106, trisodium salt of taurine-N,N-diacetic acid], in that order: “Light yellow slurry” and 63.7 wt. %.
With `O=C([O-])CN[C@@H](CC(=O)[O-])C(=O)[O-].[Na+].[Na+].[Na+]` [Example 93, trisodium salt of (S)-aspartic acid-N-monoacetic acid], the “Appearance after kept for 60 days” value is recorded as “Light yellow slurry” and the “Content of the compound of the formula” value is listed as 63.7 wt. %.
Taken in the same sequence, the figures for `O=C([O-])CCN[C@@H](CC(=O)[O-])C(=O)[O-].[Na+].[Na+].[Na+]` [Example 95, trisodium salt of (S)-aspartic acid-N-monopropionic acid] were “Light yellow slurry” and 65.4 wt. %.

Still in this data set, the particulars now being: keeping temperature 70° C.
With `O=C([O-])CCN[C@@H](CC(=O)[O-])C(=O)[O-].[Na+].[Na+].[Na+]` [Example 99, trisodium salt of (S)-aspartic acid-N-monopropionic acid], the “Appearance after kept for 60 days” value is listed as “White slurry” and the “Content of the compound of the formula” value is recorded as 79.4 wt. %.
Turning to `O=C([O-])CN[C@@H](CC(=O)[O-])C(=O)[O-].[Na+].[Na+].[Na+]` [Example 97, trisodium salt of (S)-aspartic acid-N-monoacetic acid], the “Appearance after kept for 60 days” value is reported as “White slurry” and the “Content of the compound of the formula” value is 76.8 wt. %.
As for `O=C([O-])C[C@H](NCCCN[C@@H](CC(=O)[O-])C(=O)[O-])C(=O)[O-].[Na+].[Na+].[Na+].[Na+]` [Example 120, tetrasodium (S,S)-1,3-propanediamine-N,N′-disuccinate], the “Appearance after kept for 60 days” value was “White slurry” and the “Content of the compound of the formula” value turned out to be 78.4 wt. %.
With `O=C([O-])C[C@@H](C(=O)[O-])N(CC(=O)[O-])CC(=O)[O-].[Na+].[Na+].[Na+].[Na+]` [Example 98, tetrasodium salt of (S)-aspartic acid-N,N-diacetic acid], the “Appearance after kept for 60 days” value was “White slurry” and the “Content of the compound of the formula” value is reported as 78.5 wt. %.

Staying with this data set, now noted: keeping temperature 75° C.
Regarding `O=C([O-])CN(CCS(=O)(=O)[O-])CC(=O)[O-].[Na+].[Na+].[Na+]` [Example 103, trisodium salt of taurine-N,N-diacetic acid], the “Appearance after kept for 60 days” value was “Colorless transparent aqueous solution” and the “Content of the compound of the formula” value is on record as 49.4 wt. %.
For the molecule `O=C([O-])CC(NCCCNC(CC(=O)[O-])C(=O)[O-])C(=O)[O-].[Na+].[Na+].[Ni+2]` [Example 127, nickel disodium (S,S)-1,3-propanediamine-N,N′-disuccinate], the “Appearance after kept for 60 days” value was “Blue transparent aqueous solution” and the “Content of the compound of the formula” value was 44.0 wt. %.
For `O=C([O-])CC(NCCNC(CC(=O)[O-])C(=O)[O-])C(=O)[O-].[Na+].[Na+].[Na+].[Na+]` (stereo not drawn) [Example 117, tetrasodium ethylenediamine-N,N′-disuccinate], the “Appearance after kept for 60 days” value is reported as “Colorless transparent aqueous solution” and the “Content of the compound of the formula” value is recorded as 49.8 wt. %.
Turning to `O=C([O-])CC(NCCCNC(CC(=O)[O-])C(=O)[O-])C(=O)[O-].[Na+].[Na+].[Ni+2]` [compound 51, nickel disodium (S,S)-1,3-propanediamine-N,N′-disuccinate, reference compound], the “Appearance after kept for 60 days” value is “Blue transparent aqueous solution” and the “Content of the compound of the formula” value worked out at 38.4 wt. %.
For `O=C([O-])C[C@H](NCC(O)CN[C@@H](CC(=O)[O-])C(=O)[O-])C(=O)[O-].[Cu+2].[Na+].[Na+]` [compound 52, copper disodium (S,S)-2-hydroxy-1,3-propanediamine-N,N′-disuccinate, reference compound], in that order: “Dark blue transparent aqueous solution” and 38.7 wt. %.
Taken in the same sequence, the figures for `O=C([O-])C[C@@H](C(=O)[O-])N(CC(=O)[O-])CC(=O)[O-].[Na+].[Na+].[Na+].[Na+]` [Example 90, tetrasodium salt of (S)-aspartic acid-N,N-diacetic acid] were “Colorless transparent aqueous solution” and 49.5 wt. %.
Turning to `CN(CC(=O)[O-])CC(=O)[O-].[Na+].[Na+]` [Example 104, disodium N-methyliminodiacetate], the “Appearance after kept for 60 days” value was “Colorless transparent aqueous solution”.
Turning to `O=C([O-])C[C@H](NCC(O)CN[C@@H](CC(=O)[O-])C(=O)[O-])C(=O)[O-].[Na+].[Na+].[Na+].[Na+]` [Example 116, tetrasodium (S,S)-2-hydroxy-1,3-propanediamine-N,N′-disuccinate], the “Appearance after kept for 60 days” value is given as “Colorless transparent aqueous solution” and the “Content of the compound of the formula” value came to 44.7 wt. %.
Taken in the same sequence, the figures for `C[C@@H](C(=O)[O-])N(CC(=O)[O-])CC(=O)[O-].[Na+].[Na+].[Na+]` [Example 92, trisodium salt of (S)-α-alanine-N,N-diacetic acid] were “Colorless transparent aqueous solution” and 49.8 wt. %.
`O=C([O-])CN[C@@H](CC(=O)[O-])C(=O)[O-].[Na+].[Na+].[Na+]` [compound 34, trisodium salt of (S)-aspartic acid-N-monoacetic acid, reference compound]: the “Appearance after kept for 60 days” value was “Brown aquequs solution” and the “Content of the compound of the formula” value is reported as 30.6 wt. %.
On to `CN(CC(=O)[O-])CC(=O)[O-].[Na+].[Na+]` [compound 41, disodium N-methyliminodiacetate, reference compound], for which the “Appearance after kept for 60 days” value was “Light yellow transparent aqueous solution” and the “Content of the compound of the formula” value was determined as 29.6 wt. %.
For the molecule `O=C([O-])C[C@H](NCCCN[C@@H](CC(=O)[O-])C(=O)[O-])C(=O)[O-].[Na+].[Na+].[Na+].[Na+]` [Example 115, tetrasodium (S,S)-1,3-propanediamine-N,N′-disuccinate], the “Appearance after kept for 60 days” value is given as “Colorless transparent aqueous solution” and the “Content of the compound of the formula” value was 44.3 wt. %.
Taken in the same sequence, the figures for `O=C([O-])C[C@H](NCC(O)CN[C@@H](CC(=O)[O-])C(=O)[O-])C(=O)[O-].[Na+].[Na+].[Na+].[Na+]` [compound 47, tetrasodium (S,S)-2-hydroxy-1,3-propanediamine-N,N′-disuccinate, reference compound] were “Colorless transparent aqueous solution” and 41.8 wt. %.
For `O=C([O-])C[C@H](NCCCN[C@@H](CC(=O)[O-])C(=O)[O-])C(=O)[O-].[Na+].[Na+].[Na+].[Na+]` [compound 46, tetrasodium (S,S)-1,3-propanediamine-N,N′-disuccinate, reference compound], in that order: “Colorless transparent aqueous solution” and 40.7 wt. %.
As for `O=C([O-])CN(CC(=O)[O-])c1ccccc1C(=O)[O-].[Na+].[Na+].[Na+]` [Example 105, trisodium salt of anthranilic acid-N,N-diacetic acid], the “Appearance after kept for 60 days” value is on record as “Colorless transparent aqueous solution” and the “Content of the compound of the formula” value is on record as 49.8 wt. %.
